Results: ChEMBL document CHEMBL3885861, “Open TG-GATES”

Organism: Rattus norvegicus
Assay: Open TG-GATES - Regimen: Daily Repeat
Format: toxicity, organism-based, Sprague-Dawley
Design: regimen Daily Repeat, gender Male, age 6 weeks
Conditions: in vivo, po, 40 mg/kg, route gavage, dose level Low; for APTT / Bas / Eos / Fbg / Hb / Ht / Lym / MCH / MCHC / MCV / Mono / Neu / PT / Plat / RBC / Ret / WBC: tissue Blood; for KIDNEY_L / KIDNEY_R / KIDNEY_TOTAL: tissue Kidney; for LIVER: tissue Liver; for A/G / ALP / ALT / AST / BUN / CRE / Ca / Cl / DBIL / GLC / IP / K / LDH / Na / PL / RALB / TBIL / TC / TG / TP / gamma-GTP: tissue Plasma

`Cc1cccc(C)c1OCC(C)N` (configuration not stated) [MEXILETINE] was tested, and the TERMINAL_BW (72 h, time 3 day) was 247.9 g, the APTT (72 h, time 3 day) was 21.7 s and the Bas (72 h, time 3 day) was 0%. It also gave an Eos (72 h, time 3 day) of 0.8%, a Fbg (72 h, time 3 day) of 327.2 mg/dL and a Hb (72 h, time 3 day) of 13 g/dL. It also gave a Ht (72 h, time 3 day) of 39.6%, a Lym (72 h, time 3 day) of 79.8% and an MCH (72 h, time 3 day) of 20.3 pg. For the same compound, the MCHC (72 h, time 3 day) was 32.7%, the MCV (72 h, time 3 day) was 62.1 fL and the Mono (72 h, time 3 day) was 3.2%. It also gave a Neu (72 h, time 3 day) of 15.6%, a PT (72 h, time 3 day) of 15.2 s and a Plat (72 h, time 3 day) of 118.3 x10_4/uL. It also gave an RBC (72 h, time 3 day) of 638.4 x10_4/ul, a Ret (72 h, time 3 day) of 6.1% and a WBC (72 h, time 3 day) of 92 x10_2/uL. For the same compound, the KIDNEY_L (72 h, time 3 day) was 1.1 g, the KIDNEY_R (72 h, time 3 day) was 1.1 g and the KIDNEY_TOTAL (72 h, time 3 day) was 2.1 g. The LIVER (72 h, time 3 day) was 12.1 g, the A/G (72 h, time 3 day) was 1.3 and the ALP (72 h, time 3 day) was 1808.2 IU/L. For the same compound, the ALT (72 h, time 3 day) was 47.4 IU/L, the AST (72 h, time 3 day) was 72.6 IU/L and the BUN (72 h, time 3 day) was 16.2 mg/dL. It also gave a CRE (72 h, time 3 day) of 0.1 mg/dL, a Ca (72 h, time 3 day) of 10.5 mg/dL and a Cl (72 h, time 3 day) of 105.2 meq/L. It also gave a DBIL (72 h, time 3 day) of 0 mg/dL, a GLC (72 h, time 3 day) of 192.4 mg/dL and an IP (72 h, time 3 day) of 7.7 mg/dL. The K (72 h, time 3 day) was 4.4 meq/L, the LDH (72 h, time 3 day) was 147.4 IU/L and the Na (72 h, time 3 day) was 141 meq/L. The PL (72 h, time 3 day) was 151 mg/dL, the RALB (72 h, time 3 day) was 3.2 g/dL and the TBIL (72 h, time 3 day) was 0.006 mg/dL. It also gave a TC (72 h, time 3 day) of 77.6 mg/dL, a TG (72 h, time 3 day) of 133.8 mg/dL and a TP (72 h, time 3 day) of 5.6 g/dL. For the same compound, the gamma-GTP (72 h, time 3 day) was 1.6 IU/L, the TERMINAL_BW ([…], time 7 day) was 275.8 g and the TERMINAL_BW ([…], time 14 day) was 338.1 g. It also gave a TERMINAL_BW ([…], time 28 day) of 397.8 g, an APTT ([…], time 7 day) of 22.5 s and a Bas ([…], time 7 day) of 0%. The Eos ([…], time 7 day) was 1%, the Fbg ([…], time 7 day) was 317.4 mg/dL and the Hb ([…], time 7 day) was 13 g/dL. For the same compound, the Ht ([…], time 7 day) was 39.9%, the Lym ([…], time 7 day) was 81% and the MCH ([…], time 7 day) was 20.4 pg. It also gave an MCHC ([…], time 7 day) of 32.5%, an MCV ([…], time 7 day) of 62.8 fL and a Mono ([…], time 7 day) of 2.4%. It also gave a Neu ([…], time 7 day) of 15%, a PT ([…], time 7 day) of 16 s and a Plat ([…], time 7 day) of 107.4 x10_4/uL. For the same compound, the RBC ([…], time 7 day) was 634.4 x10_4/ul, the Ret ([…], time 7 day) was 6.2% and the WBC ([…], time 7 day) was 105.8 x10_2/uL. The APTT ([…], time 14 day) was 20.9 s, the Bas ([…], time 14 day) was 0% and the Eos ([…], time 14 day) was 0.4%. For the same compound, the Fbg ([…], time 14 day) was 302.8 mg/dL, the Hb ([…], time 14 day) was 13.1 g/dL and the Ht ([…], time 14 day) was 40.8%. The Lym ([…], time 14 day) was 80.4%, the MCH ([…], time 14 day) was 20.6 pg and the MCHC ([…], time 14 day) was 32.1%. The MCV ([…], time 14 day) was 64.2 fL, the Mono ([…], time 14 day) was 2.2% and the Neu ([…], time 14 day) was 16%. For the same compound, the PT ([…], time 14 day) was 15.9 s, the Plat ([…], time 14 day) was 119 x10_4/uL and the RBC ([…], time 14 day) was 634.2 x10_4/ul. The Ret ([…], time 14 day) was 7.8%, the WBC ([…], time 14 day) was 92.2 x10_2/uL and the APTT ([…], time 28 day) was 22.8 s. The Bas ([…], time 28 day) was 0%, the Eos ([…], time 28 day) was 1% and the Fbg ([…], time 28 day) was 323.4 mg/dL. It also gave a Hb ([…], time 28 day) of 14.9 g/dL, a Ht ([…], time 28 day) of 43.2% and a Lym ([…], time 28 day) of 79.8%. The MCH ([…], time 28 day) was 19.4 pg, the MCHC ([…], time 28 day) was 34.5% and the MCV ([…], time 28 day) was 56.3 fL. The Mono ([…], time 28 day) was 2.4%, the Neu ([…], time 28 day) was 15.6% and the PT ([…], time 28 day) was 15.9 s. The Plat ([…], time 28 day) was 101.8 x10_4/uL, the RBC ([…], time 28 day) was 766.6 x10_4/ul and the Ret ([…], time 28 day) was 2.8%. The WBC ([…], time 28 day) was 104.7 x10_2/uL, the KIDNEY_L ([…], time 7 day) was 1.1 g and the KIDNEY_R ([…], time 7 day) was 1.1 g. The KIDNEY_TOTAL ([…], time 7 day) was 2.2 g, the KIDNEY_L ([…], time 14 day) was 1.3 g and the KIDNEY_R ([…], time 14 day) was 1.3 g. For the same compound, the KIDNEY_TOTAL ([…], time 14 day) was 2.6 g, the KIDNEY_L ([…], time 28 day) was 1.4 g and the KIDNEY_R ([…], time 28 day) was 1.4 g. The KIDNEY_TOTAL ([…], time 28 day) was 2.9 g, the LIVER ([…], time 7 day) was 12.7 g and the LIVER ([…], time 14 day) was 15.2 g. For the same compound, the LIVER ([…], time 28 day) was 17.1 g, the A/G ([…], time 7 day) was 1.2 and the ALP ([…], time 7 day) was 1628.6 IU/L. The ALT ([…], time 7 day) was 47.8 IU/L, the AST ([…], time 7 day) was 72.4 IU/L and the BUN ([…], time 7 day) was 19.6 mg/dL. It also gave a CRE ([…], time 7 day) of 0.2 mg/dL, a Ca ([…], time 7 day) of 10.6 mg/dL and a Cl ([…], time 7 day) of 105.6 meq/L. The DBIL ([…], time 7 day) was 0 mg/dL, the GLC ([…], time 7 day) was 190 mg/dL and the IP ([…], time 7 day) was 7.2 mg/dL. It also gave a K ([…], time 7 day) of 4 meq/L, an LDH ([…], time 7 day) of 162.8 IU/L and a Na ([…], time 7 day) of 143.2 meq/L. It also gave a PL ([…], time 7 day) of 145.2 mg/dL, an RALB ([…], time 7 day) of 3 g/dL and a TBIL ([…], time 7 day) of 0.002 mg/dL. For the same compound, the TC ([…], time 7 day) was 82 mg/dL, the TG ([…], time 7 day) was 108.8 mg/dL and the TP ([…], time 7 day) was 5.6 g/dL. The gamma-GTP ([…], time 7 day) was 1.8 IU/L, the A/G ([…], time 14 day) was 1.1 and the ALP ([…], time 14 day) was 1520 IU/L. For the same compound, the ALT ([…], time 14 day) was 43.4 IU/L, the AST ([…], time 14 day) was 69.6 IU/L and the BUN ([…], time 14 day) was 18.6 mg/dL. It also gave a CRE ([…], time 14 day) of 0.2 mg/dL, a Ca ([…], time 14 day) of 10.5 mg/dL and a Cl ([…], time 14 day) of 106.8 meq/L. For the same compound, the DBIL ([…], time 14 day) was 0 mg/dL, the GLC ([…], time 14 day) was 196.8 mg/dL and the IP ([…], time 14 day) was 6.8 mg/dL. It also gave a K ([…], time 14 day) of 4.2 meq/L, an LDH ([…], time 14 day) of 154.2 IU/L and a Na ([…], time 14 day) of 141.4 meq/L. It also gave a PL ([…], time 14 day) of 152.8 mg/dL, an RALB ([…], time 14 day) of 3 g/dL and a TBIL ([…], time 14 day) of 0.002 mg/dL. It also gave a TC ([…], time 14 day) of 80.4 mg/dL, a TG ([…], time 14 day) of 136.8 mg/dL and a TP ([…], time 14 day) of 5.9 g/dL. For the same compound, the gamma-GTP ([…], time 14 day) was 2.4 IU/L, the A/G ([…], time 28 day) was 1 and the ALP ([…], time 28 day) was 1106 IU/L. It also gave an ALT ([…], time 28 day) of 37.8 IU/L, an AST ([…], time 28 day) of 62.4 IU/L and a BUN ([…], time 28 day) of 17.6 mg/dL. For the same compound, the CRE ([…], time 28 day) was 0.2 mg/dL, the Ca ([…], time 28 day) was 10.5 mg/dL and the Cl ([…], time 28 day) was 106 meq/L. The DBIL ([…], time 28 day) was 0 mg/dL, the GLC ([…], time 28 day) was 197.2 mg/dL and the IP ([…], time 28 day) was 6.5 mg/dL. It also gave a K ([…], time 28 day) of 3.8 meq/L, an LDH ([…], time 28 day) of 154.6 IU/L and a Na ([…], time 28 day) of 142.8 meq/L. The PL ([…], time 28 day) was 146.4 mg/dL, the RALB ([…], time 28 day) was 3.1 g/dL and the TBIL ([…], time 28 day) was 0.014 mg/dL. For the same compound, the TC ([…], time 28 day) was 67.8 mg/dL, the TG ([…], time 28 day) was 174.2 mg/dL and the TP ([…], time 28 day) was 6.1 g/dL. The gamma-GTP ([…], time 28 day) was 2.4 IU/L.
